Reference: the NIST ThermoML archive (doi:10.1016/j.fluid.2016.10.026)

Conditions: for mass density / kinematic viscosity / speed of sound / vapor or sublimation pressure: Liquid; for mass density: Vibrating tube method; for surface tension liquid-gas: Drop volume; for kinematic viscosity: Capillary tube (Ostwald / Ubbelohde) method; for speed of sound: Frequency=3 MHz, Sing-around technique in a fixed-path interferometer; for vapor or sublimation pressure: Ebulliometric method (Recirculating still)

CC(=O)c1cccs1 [2-acetylthiophene]
Conditions | kinematic viscosity [m2/s] | mass density [kg/m3] | speed of sound [m/s]
313.15 K, 25000 kPa | – | 1167.08 | –
313.15 K, 30000 kPa | – | 1169.85 | –
313.15 K, 35000 kPa | – | 1172.56 | –
313.15 K, 40000 kPa | – | 1175.19 | –
313.15 K, 45000 kPa | – | 1177.74 | –
313.15 K, 50000 kPa | – | 1180.24 | –
313.15 K, 55000 kPa | – | 1182.67 | –
313.15 K, 60000 kPa | – | 1185.04 | –
313.15 K, 65000 kPa | – | 1187.36 | –
315.65 K, 101 kPa | 1.58e-06 | 1149.57 | 1409
318.15 K, 100 kPa | – | 1147.15 | –
318.15 K, 101 kPa | 1.51e-06 | 1147.18 | 1400.3
318.15 K, 2000 kPa | – | 1148.56 | –
318.15 K, 5000 kPa | – | 1150.49 | –
318.15 K, 7000 kPa | – | 1151.77 | –
318.15 K, 10000 kPa | – | 1153.65 | –
318.15 K, 15000 kPa | – | 1156.74 | –
318.15 K, 20000 kPa | – | 1159.72 | –
318.15 K, 25000 kPa | – | 1162.64 | –
318.15 K, 30000 kPa | – | 1165.47 | –
318.15 K, 35000 kPa | – | 1168.21 | –
318.15 K, 40000 kPa | – | 1170.9 | –
318.15 K, 45000 kPa | – | 1173.5 | –
318.15 K, 50000 kPa | – | 1176.04 | –
318.15 K, 55000 kPa | – | 1178.53 | –
318.15 K, 60000 kPa | – | 1180.93 | –
318.15 K, 65000 kPa | – | 1183.29 | –
320.65 K, 101 kPa | 1.45e-06 | 1144.79 | 1391.8
323.15 K, 100 kPa | – | 1142.34 | –
323.15 K, 101 kPa | 1.39e-06 | 1142.39 | 1383.4
323.15 K, 2000 kPa | – | 1143.79 | –
323.15 K, 5000 kPa | – | 1145.78 | –
323.15 K, 7000 kPa | – | 1147.09 | –
323.15 K, 10000 kPa | – | 1149.02 | –
323.15 K, 15000 kPa | – | 1152.17 | –
323.15 K, 20000 kPa | – | 1155.23 | –
323.15 K, 25000 kPa | – | 1158.22 | –
323.15 K, 30000 kPa | – | 1161.08 | –
323.15 K, 35000 kPa | – | 1163.89 | –
323.15 K, 40000 kPa | – | 1166.63 | –
323.15 K, 45000 kPa | – | 1169.28 | –
323.15 K, 50000 kPa | – | 1171.88 | –
323.15 K, 55000 kPa | – | 1174.4 | –
323.15 K, 60000 kPa | – | 1176.86 | –
323.15 K, 65000 kPa | – | 1179.25 | –
325.65 K, 101 kPa | 1.34e-06 | 1140 | 1375
328.15 K, 100 kPa | – | 1137.56 | –
328.15 K, 101 kPa | 1.29e-06 | 1137.61 | 1366.5
328.15 K, 2000 kPa | – | 1139.02 | –
328.15 K, 5000 kPa | – | 1141.06 | –
328.15 K, 7000 kPa | – | 1142.39 | –
328.15 K, 10000 kPa | – | 1144.38 | –
328.15 K, 15000 kPa | – | 1147.6 | –
328.15 K, 20000 kPa | – | 1150.78 | –
328.15 K, 25000 kPa | – | 1153.79 | –
328.15 K, 30000 kPa | – | 1156.77 | –
328.15 K, 35000 kPa | – | 1159.56 | –
328.15 K, 40000 kPa | – | 1162.34 | –
328.15 K, 45000 kPa | – | 1165.07 | –
328.15 K, 50000 kPa | – | 1167.69 | –
328.15 K, 55000 kPa | – | 1170.28 | –
328.15 K, 60000 kPa | – | 1172.79 | –
328.15 K, 65000 kPa | – | 1175.21 | –
330.65 K, 101 kPa | 1.24e-06 | 1135.21 | 1358.1
333.15 K, 100 kPa | – | 1132.76 | –
333.15 K, 101 kPa | 1.2e-06 | 1132.81 | 1349.5
333.15 K, 2000 kPa | – | 1134.24 | –
333.15 K, 5000 kPa | – | 1136.33 | –
333.15 K, 7000 kPa | – | 1137.7 | –
333.15 K, 10000 kPa | – | 1139.72 | –
333.15 K, 15000 kPa | – | 1143.11 | –
333.15 K, 20000 kPa | – | 1146.25 | –
333.15 K, 25000 kPa | – | 1149.39 | –
333.15 K, 30000 kPa | – | 1152.35 | –
333.15 K, 35000 kPa | – | 1155.23 | –
333.15 K, 40000 kPa | – | 1158.08 | –
333.15 K, 45000 kPa | – | 1160.83 | –
333.15 K, 50000 kPa | – | 1163.52 | –
333.15 K, 55000 kPa | – | 1166.14 | –
333.15 K, 60000 kPa | – | 1168.68 | –
333.15 K, 65000 kPa | – | 1171.17 | –
335.65 K, 101 kPa | 1.16e-06 | 1130.41 | 1340.8
338.15 K, 100 kPa | – | 1127.97 | –
338.15 K, 101 kPa | 1.12e-06 | 1128.01 | 1332.2
338.15 K, 2000 kPa | – | 1129.47 | –
338.15 K, 5000 kPa | – | 1131.61 | –
338.15 K, 7000 kPa | – | 1133.01 | –
338.15 K, 10000 kPa | – | 1135.08 | –
338.15 K, 15000 kPa | – | 1138.55 | –
338.15 K, 20000 kPa | – | 1141.78 | –
338.15 K, 25000 kPa | – | 1144.86 | –
338.15 K, 30000 kPa | – | 1147.94 | –
338.15 K, 35000 kPa | – | 1150.94 | –
338.15 K, 40000 kPa | – | 1153.82 | –
338.15 K, 45000 kPa | – | 1156.64 | –
338.15 K, 50000 kPa | – | 1159.38 | –
338.15 K, 55000 kPa | – | 1162.04 | –
338.15 K, 60000 kPa | – | 1164.64 | –
338.15 K, 65000 kPa | – | 1167.11 | –

Conditions | surface tension liquid-gas [mN/m] | vapor or sublimation pressure [kPa]
315.65 K | 41.14 | –
318.15 K | 40.87 | –
320.65 K | 40.58 | –
323.15 K | 40.27 | –
325.65 K | 39.97 | –
328.15 K | 39.7 | –
330.65 K | 39.43 | –
333.15 K | 39.12 | –
335.65 K | 38.88 | –
336.16 K | – | 0.305
338.15 K | 38.58 | –
340.77 K | – | 0.4
342.94 K | – | 0.45
345.74 K | – | 0.54
350.41 K | – | 0.69
356.58 K | – | 0.955
362.84 K | – | 1.295
365.84 K | – | 1.545
371.37 K | – | 2.02
376.26 K | – | 2.52
383.49 K | – | 3.53
389.55 K | – | 4.545
394.16 K | – | 5.5
400.53 K | – | 7.065
407.19 K | – | 9.015
412.74 K | – | 11.05
417.12 K | – | 13.02
421.69 K | – | 15.2
423.25 K | – | 15.99
426.08 K | – | 17.63
429.93 K | – | 20.05
433.16 K | – | 22.2
435.59 K | – | 24.04
438.37 K | – | 26.19
440.66 K | – | 28.12
442.49 K | – | 29.8
445.02 K | – | 32.16
